Experimental data reported in patent publication US10004701B2, “Methods and compositions for treating infection” (UNIVERSITY OF ROCHESTER, priority 2012, dated 2018).
Structures can show the parent of a compound that is named as a salt. Where two headings read alike, the source gives them in different places.

What was measured:
Assay in all cases: AK assay 384-well format, Prestwick library screening
E. faecium = format: cell-based, Enterococcus faecium; settings: 50 μM final drug concentration; for fold induction at 50 µM: Enterococcus faecium, 3 h
E. coli = format: cell-based, Escherichia coli; settings: 50 μM final drug concentration; for fold induction at 50 µM: Escherichia coli, 3 h
E. cloacae = format: cell-based, Enterobacter cloacae; settings: 50 μM final drug concentration; for fold induction at 50 µM: Enterobacter cloacae, 3 h
K. pneumoniae = format: cell-based, Klebsiella pneumoniae; settings: 50 μM final drug concentration; for fold induction at 50 µM: Klebsiella pneumoniae, 3 h
P. aeruginosa = format: cell-based, Pseudomonas aeruginosa; settings: 50 μM final drug concentration; for fold induction at 50 µM: Pseudomonas aeruginosa, 3 h
[1] = test system: A. baumannii strain 98-37-09; format: cell-based, Acinetobacter baumannii; settings: 50 μM final drug concentration; for fold induction at 50 µM: Acinetobacter baumannii, 983709, 3 h
[2] = test system: S. aureus strain USA300-0114; format: cell-based, Staphylococcus aureus; settings: 50 μM final drug concentration; for fold induction at 50 µM: Staphylococcus aureus, USA300, 3 h
[3] = planktonic, cutoff for positive-scoring molecules 3-fold increase
[4] = planktonic E. faecium, 384-well, cutoff for positive-scoring molecules 3-fold increase, read-out: AK-based Prestwick Library Screening Results: E. faecium (increase in extracellular AK activity)
[5] = planktonic E. coli, 384-well, cutoff for positive-scoring molecules 3-fold increase, read-out: AK-based Prestwick Library Screening Results: E. coli (increase in extracellular AK activity)
[6] = planktonic E. cloacae, 384-well, cutoff for positive-scoring molecules 3-fold increase, read-out: AK-based Prestwick Library Screening Results: E. cloacae (increase in extracellular AK activity)
[7] = planktonic K. pneumoniae, 384-well, cutoff for positive-scoring molecules 3-fold increase, read-out: AK-based Prestwick Library Screening Results: K. pneumoniae (increase in extracellular AK activity)
[8] = planktonic P. aeruginosa, 384-well, cutoff for positive-scoring molecules 3-fold increase, read-out: AK-based Prestwick Library Screening Results: P. aeruginosa (increase in extracellular AK activity)
[9] = planktonic A. baumannii, 384-well, cutoff for positive-scoring molecules 3-fold increase, read-out: AK-based Prestwick Library Screening Results: A. baumannii (increase in extracellular AK activity)
[10] = planktonic S. aureus, 384-well, cutoff for positive-scoring molecules 3-fold increase, read-out: AK-based Prestwick Library Screening Results: S. aureus (increase in extracellular AK activity)
[11] = planktonic, cutoff for positive-scoring molecules 3-fold increase, read-out: AK-based Prestwick Library Screening Results, E. faecium (fold increase in extracellular AK activity)
[12] = planktonic, cutoff for positive-scoring molecules 3-fold increase, read-out: AK-based Prestwick Library Screening Results, E. coli (fold increase in extracellular AK activity)
[13] = planktonic, cutoff for positive-scoring molecules 3-fold increase, read-out: AK-based Prestwick Library Screening Results, E. cloacae (fold increase in extracellular AK activity)
[14] = planktonic, cutoff for positive-scoring molecules 3-fold increase, read-out: AK-based Prestwick Library Screening Results, K. pneumoniae (fold increase in extracellular AK activity)
[15] = planktonic, cutoff for positive-scoring molecules 3-fold increase, read-out: AK-based Prestwick Library Screening Results, P. aeruginosa (fold increase in extracellular AK activity)
[16] = planktonic, cutoff for positive-scoring molecules 3-fold increase, read-out: AK-based Prestwick Library Screening Results, A. baumannii (fold increase in extracellular AK activity)
[17] = planktonic, cutoff for positive-scoring molecules 3-fold increase, read-out: AK-based Prestwick Library Screening Results, S. aureus (fold increase in extracellular AK activity)

`CCN(CC)CCc1nc(-c2ccccc2)no1.O=C(O)CC(O)(CC(=O)O)C(=O)O` [Oxalamine citrate salt] was tested, and the “AK-based Prestwick Library Screening Results, E. faecium (fold increase in extracellular AK activity)” value (E. faecium; [3]) was 0.8, the “AK-based Prestwick Library Screening Results, E. coli (fold increase in extracellular AK activity)” value (E. coli; [3]) was 0.9 and the “AK-based Prestwick Library Screening Results, E. cloacae (fold increase in extracellular AK activity)” value (E. cloacae; [3]) was 1.2. For the same compound, the “AK-based Prestwick Library Screening Results, K. pneumoniae (fold increase in extracellular AK activity)” value (K. pneumoniae; [3]) was 0.7, the “AK-based Prestwick Library Screening Results, P. aeruginosa (fold increase in extracellular AK activity)” value (P. aeruginosa; [3]) was 0.9 and the “AK-based Prestwick Library Screening Results, A. baumannii (fold increase in extracellular AK activity)” value [1, 3] was 0.8. The “AK-based Prestwick Library Screening Results, S. aureus (fold increase in extracellular AK activity)” value [2, 3] was 0.8.

In the case of `COc1ccc(CN2CCNCC2)c(OC)c1OC` [Trimetazidine dihydrochloride], the fold induction at 50 µM (E. faecium; planktonic, cutoff for positive 3-fold increase, read-out: AK-based Prestwick Library Screening Results, E. faecium (fold increase in extracellular AK activity)) is reported as 1, the fold induction at 50 µM (E. coli; planktonic, cutoff for positive 3-fold increase, read-out: AK-based Prestwick Library Screening Results, E. coli (fold increase in extracellular AK activity)) is reported as 1.4 and the fold induction at 50 µM (E. cloacae; planktonic, cutoff for positive 3-fold increase, read-out: AK-based Prestwick Library Screening Results, E. cloacae (fold increase in extracellular AK activity)) is reported as 1.7. For the same compound, the fold induction at 50 µM (K. pneumoniae; planktonic, cutoff for positive 3-fold increase, read-out: AK-based Prestwick Library Screening Results, K. pneumoniae (fold increase in extracellular AK activity)) was 1.1, the fold induction at 50 µM (P. aeruginosa; planktonic, cutoff for positive 3-fold increase, read-out: AK-based Prestwick Library Screening Results, P. aeruginosa (fold increase in extracellular AK activity)) was 1.1 and the fold induction at 50 µM ([1]; planktonic, cutoff for positive 3-fold increase, read-out: AK-based Prestwick Library Screening Results, A. baumannii (fold increase in extracellular AK activity)) was 1.2. For the same compound, the fold induction at 50 µM ([2]; planktonic, cutoff for positive 3-fold increase, read-out: AK-based Prestwick Library Screening Results, S. aureus (fold increase in extracellular AK activity)) was 1.2.

With `c1ccc(CC2=NCCN2)cc1` [Tolazoline hydrochloride] the fold induction at 50 µM (E. faecium; [4]) was 1, the fold induction at 50 µM (E. coli; [5]) was 1.4 and the fold induction at 50 µM (E. cloacae; [6]) was 1.5. It also gave a fold induction at 50 µM (K. pneumoniae; [7]) of 1, a fold induction at 50 µM (P. aeruginosa; [8]) of 1.1 and a fold induction at 50 µM [1, 9] of 1.3. The fold induction at 50 µM [2, 10] was 1.2.

`CN(C)[C@@H]1C(O)=C(C(N)=O)C(=O)[C@@]2(O)C(O)=C3C(=O)c4c(O)cccc4[C@@](C)(O)[C@H]3C[C@@H]12` [Tetracycline hydrochloride] gave a fold induction at 50 µM (E. faecium; [4]) of 1, a fold induction at 50 µM (E. coli; [5]) of 0.8 and a fold induction at 50 µM (E. cloacae; [6]) of 1. It also gave a fold induction at 50 µM (K. pneumoniae; [7]) of 0.2, a fold induction at 50 µM (P. aeruginosa; [8]) of 0.5 and a fold induction at 50 µM [1, 9] of 4.4. The fold induction at 50 µM [2, 10] was 9.2.

`O=C(c1ccc(OCCN2CCCCC2)cc1)c1c(-c2ccc(O)cc2)sc2cc(O)ccc12` [Raloxifene hydrochloride] was tested, and the fold induction at 50 µM (E. faecium; cutoff for positive-scoring molecules 3-fold increase, read-out: AK-based Prestwick Library Screening Results, E. faecium (fold increase in extracellular AK activity)) was 0.9, the fold induction at 50 µM (E. coli; […], read-out: AK-based Prestwick Library Screening Results, E. coli (fold increase in extracellular AK activity)) was 1.5 and the fold induction at 50 µM (E. cloacae; cutoff for positive-scoring molecules 3-fold increase, read-out: AK-based Prestwick Library Screening Results, E. cloacae (fold increase in extracellular AK activity)) was 1.3. For the same compound, the fold induction at 50 µM (K. pneumoniae; cutoff for positive-scoring molecules 3-fold increase, read-out: AK-based Prestwick Library Screening Results, K. pneumoniae (fold increase in extracellular AK activity)) was 1.1, the fold induction at 50 µM (P. aeruginosa; cutoff for positive-scoring molecules 3-fold increase, read-out: AK-based Prestwick Library Screening Results, P. aeruginosa (fold increase in extracellular AK activity)) was 1.2 and the fold induction at 50 µM ([1]; cutoff for positive-scoring molecules 3-fold increase, read-out: AK-based Prestwick Library Screening Results, A. baumannii (fold increase in extracellular AK activity)) was 1.5. It also gave a fold induction at 50 µM ([2]; cutoff for positive-scoring molecules 3-fold increase, read-out: AK-based Prestwick Library Screening Results, S. aureus (fold increase in extracellular AK activity)) of 1.2.

With `O=C1NCN(c2ccccc2)C12CCN(CCCC(c1ccc(F)cc1)c1ccc(F)cc1)CC2` [Fluspirilen] the “AK-based Prestwick Library Screening Results, E. faecium (fold increase in extracellular AK activity)” value (E. faecium; [3]) was 1.3, the “AK-based Prestwick Library Screening Results, E. coli (fold increase in extracellular AK activity)” value (E. coli; [3]) was 1.3 and the “AK-based Prestwick Library Screening Results, E. cloacae (fold increase in extracellular AK activity)” value (E. cloacae; [3]) was 1.0. For the same compound, the “AK-based Prestwick Library Screening Results, K. pneumoniae (fold increase in extracellular AK activity)” value (K. pneumoniae; [3]) was 1.1, the “AK-based Prestwick Library Screening Results, P. aeruginosa (fold increase in extracellular AK activity)” value (P. aeruginosa; [3]) was 0.8 and the “AK-based Prestwick Library Screening Results, A. baumannii (fold increase in extracellular AK activity)” value [1, 3] was 6.6. The “AK-based Prestwick Library Screening Results, S. aureus (fold increase in extracellular AK activity)” value [2, 3] was 1.4.

Work on `C[N+]1(C)C[C@H](O)C[C@H]1C(=O)[O-]` [Betonicine] yielded a fold induction at 50 µM (E. faecium; [11]) of 0.9, a fold induction at 50 µM (E. coli; [12]) of 0.4 and a fold induction at 50 µM (E. cloacae; [13]) of 0.4. It also gave a fold induction at 50 µM (K. pneumoniae; [14]) of 0.6, a fold induction at 50 µM (P. aeruginosa; [15]) of 0.4 and a fold induction at 50 µM [1, 16] of 0.4. For the same compound, the fold induction at 50 µM [2, 17] was 0.4.

`Cc1onc(-c2ccccc2Cl)c1C(=O)N[C@@H]1C(=O)N2[C@@H]1SC(C)(C)[C@@H]2C(=O)O` [Cloxacillin sodium salt] was tested, and the fold induction at 50 µM (E. faecium; 384-well format, cutoff for positive-scoring molecules 3-fold increase, read-out: AK-based Prestwick Library Screening Results, E. faecium (increase in extracellular AK activity)) was 1, the fold induction at 50 µM (E. coli; 384-well format, cutoff for positive-scoring molecules 3-fold increase, read-out: AK-based Prestwick Library Screening Results, E. coli (increase in extracellular AK activity)) was 1 and the fold induction at 50 µM (E. cloacae; 384-well format, cutoff for positive-scoring molecules 3-fold increase, read-out: AK-based Prestwick Library Screening Results, E. cloacae (increase in extracellular AK activity)) was 1. The fold induction at 50 µM (K. pneumoniae; 384-well format, cutoff for positive-scoring molecules 3-fold increase, read-out: AK-based Prestwick Library Screening Results, K. pneumoniae (increase in extracellular AK activity)) was 0.7, the fold induction at 50 µM (P. aeruginosa; 384-well format, cutoff for positive-scoring molecules 3-fold increase, read-out: AK-based Prestwick Library Screening Results, P. aeruginosa (increase in extracellular AK activity)) was 1 and the fold induction at 50 µM ([1]; 384-well format, cutoff for positive-scoring molecules 3-fold increase, read-out: AK-based Prestwick Library Screening Results, A. baumannii (increase in extracellular AK activity)) was 1.3. It also gave a fold induction at 50 µM ([2]; 384-well format, cutoff for positive-scoring molecules 3-fold increase, read-out: AK-based Prestwick Library Screening Results, S. aureus (increase in extracellular AK activity)) of 5.3.

With `CN(C(=O)C(Cl)Cl)c1ccc(OC(=O)c2ccco2)cc1` [Diloxanide furoate] the fold induction at 50 µM (E. faecium; [11]) was 0.8, the fold induction at 50 µM (E. coli; [12]) was 1 and the fold induction at 50 µM (E. cloacae; [13]) was 1.2. For the same compound, the fold induction at 50 µM (K. pneumoniae; [14]) was 0.7, the fold induction at 50 µM (P. aeruginosa; [15]) was 1 and the fold induction at 50 µM [1, 16] was 0.9. The fold induction at 50 µM [2, 17] was 0.7.
